In patent US20150105252A1, “SUBSTITUTED PYRAZOLES AS HERBICIDES” (E I DU PONT DE NEMOURS AND COMPANY, priority 2013, published 2015):

What was measured:
morningglory [1] = experiment: Test C postemergence; format: in vivo, Ipomoea coccinea; conditions: for Morningglory plant response rating / Plant response rating, Morningglory: postemergence; for Morningglory plant response rating: 62 g ai/ha, scale 0 to 100
In short: (§1)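 Visual rating, 0–100 scale (0 no effect, 100 complete control), vs untreated controls after 13–15 d greenhouse. Pre: seeds in loam/sand, treated at sowing. Post: plants in peat-based mix, 1- to 4-leaf (2–18 cm). Solvent + surfactant formulation, non-phytotoxic.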

foxtail, giant = experiment: Test A preemergence; format: in vivo, Setaria faberii; conditions: 0 to 100 scale
In short: (§2)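 Growth medium: loam soil blended with sand. Preemergence treatment used a directed soil spray right after planting; postemergence treatment targeted seedlings at one to two leaves (2–10 cm height). Response was judged by eye relative to untreated plants about 10 days later on a 0–100 control scale.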

lambsquarters = experiment: Test C postemergence; format: in vivo, Chenopodium album; conditions: for Plant response rating (scale of 0 to 100 where 0 is no effect and 100 is complete control), Lambsquarters: 31 g ai/ha, visually evaluated after 13 to 15 days; for Lambsquarters plant response rating / Plant response rating, Lambsquarters: postemergence; for Lambsquarters plant response rating: 62 g ai/ha, scale 0 to 100
In short: as §1

pigweed = experiment: Test C postemergence; format: in vivo, Amaranthus retroflexus; conditions: for Plant response rating (scale of 0 to 100 where 0 is no effect and 100 is complete control), Pigweed: 31 g ai/ha, visually evaluated after 13 to 15 days; for Pigweed plant response rating / Plant response rating, Pigweed: postemergence; for Pigweed plant response rating: 62 g ai/ha, scale 0 to 100
In short: as §1

barnyardgrass [2] = experiment: Test C preemergence; format: in vivo, Echinochloa crus-galli
In short: as §1

morningglory [3] = experiment: Test A preemergence; format: in vivo, Ipomoea spp.; conditions: 0 to 100 scale
In short: as §2

barnyardgrass [4] = experiment: Test C postemergence; format: in vivo, Echinochloa crus-galli; conditions: for Plant response rating (scale of 0 to 100 where 0 is no effect and 100 is complete control), Barnyardgrass: 31 g ai/ha, visually evaluated after 13 to 15 days; for Barnyardgrass plant response rating / Plant response rating, Barnyardgrass: postemergence; for Barnyardgrass plant response rating: 62 g ai/ha, scale 0 to 100
In short: as §1

velvetleaf [5] = experiment: Test C postemergence; format: in vivo, Abutilon theophrasti; conditions: for Plant response rating (scale of 0 to 100 where 0 is no effect and 100 is complete control), Velvetleaf: 31 g ai/ha, visually evaluated after 13 to 15 days; for Velvetleaf plant response rating / Plant response rating, Velvetleaf: postemergence; for Velvetleaf plant response rating: 62 g ai/ha, scale 0 to 100
In short: as §1

corn [6] = experiment: Test A postemergence; format: in vivo, Zea mays
In short: as §2

oilseed rape = experiment: Test C postemergence; format: in vivo, Brassica napus; conditions: for Plant response rating (scale of 0 to 100 where 0 is no effect and 100 is complete control), Oilseed Rape: 31 g ai/ha, visually evaluated after 13 to 15 days; for Oilseed Rape plant response rating / Plant response rating, Oilseed Rape: postemergence; for Oilseed Rape plant response rating: 62 g ai/ha, scale 0 to 100
In short: as §1

barnyardgrass [7] = experiment: Test A postemergence; format: in vivo, Echinochloa crus-galli; conditions: Postemergence
In short: as §2

velvetleaf [8] = experiment: Test A postemergence; format: in vivo, Abutilon theophrasti
In short: as §2

corn [9] = experiment: Test A preemergence; format: in vivo, Zea mays; conditions: 0 to 100 scale
In short: as §2

oat, wild = experiment: Test C postemergence; format: in vivo, Avena fatua; conditions: for Plant response rating (scale of 0 to 100 where 0 is no effect and 100 is complete control), Oat, Wild: 31 g ai/ha, visually evaluated after 13 to 15 days; for Oat, Wild plant response rating / Plant response rating, Oat, Wild: postemergence; for Oat, Wild plant response rating: 62 g ai/ha, scale 0 to 100
In short: as §1

chickweed = experiment: Test C postemergence; format: in vivo, Stellaria media; conditions: for Plant response rating (scale of 0 to 100 where 0 is no effect and 100 is complete control), Chickweed: 31 g ai/ha, visually evaluated after 13 to 15 days; for Chickweed plant response rating / Plant response rating, Chickweed: postemergence; for Chickweed plant response rating: 62 g ai/ha, scale 0 to 100
In short: as §1

galium = experiment: Test C preemergence; format: in vivo, Galium aparine
In short: as §1

[10] = 250 g ai/ha, scale 0 to 100 (0 no effect, 100 complete control)
[11] = 125 g ai/ha, scale 0 to 100, 0 no effect, 100 complete control
[12] = Preemergence, 500 g ai/ha, 0 no effect, 100 complete control
[13] = preemergence, 125 g ai/ha, visual injury, approx. 10 days
[14] = preemergence, 31 g ai/ha, scale 0 to 100 (0 no effect, 100 complete control), 13 to 15 days
[15] = preemergence, 62 g ai/ha, 13 to 15 days, scale 0 to 100, 0 = no effect, 100 = complete control
[16] = preemergence, 125 g ai/ha, scale 0 to 100, 0 is no effect, 100 is complete control
[17] = Postemergence, 500 g ai/ha, visual rating after approx. 10 days, 0 to 100 scale (0 no effect, 100 complete control)
[18] = postemergence, 125 g ai/ha, about 10 days, visual rating on 0 to 100 scale (0 no effect, 100 complete control)
[19] = 125 g ai/ha, 0 to 100 scale, 0 no effect, 100 complete control
[20] = 500 g ai/ha, visual rating after approx. 10 days, 0 to 100 scale (0 no effect, 100 complete control)
[21] = Preemergence, 16 g ai/ha, scale 0 to 100

CCc1cc(C(=O)NC2CC2)nn1Cc1ccnc(C(F)(F)F)c1 [Compound 76]
25: Plant response rating, Oat, Wild (oat, wild; [10])
30: Plant response rating (scale of 0 to 100 where 0 is no effect and 100 is complete control), Oilseed Rape (oilseed rape; Postemergence) | Velvetleaf plant response rating (velvetleaf [8]; [18])
85: Plant response rating, Morningglory (morningglory [1]; [11]) | Plant response rating, Lambsquarters (lambsquarters; [10]) | Plant response rating, Lambsquarters (lambsquarters; [11]) | Plant response rating, Chickweed (chickweed; [10])
95: Barnyardgrass plant response rating (barnyardgrass [2]; [14])
40: Velvetleaf plant response rating (velvetleaf [5])
90: Plant response rating, Pigweed (pigweed; [11]) | Corn plant response rating (corn [6]; [17]) | Barnyardgrass plant response rating (barnyardgrass [7]; [20]) | Velvetleaf plant response rating (velvetleaf [8]; [17])
98: Plant response rating, Morningglory (morningglory [1]; [10]) | Plant response rating, Pigweed (pigweed; [10]) | Galium plant response rating (galium; [14])
5: Plant response rating (scale of 0 to 100 where 0 is no effect and 100 is complete control), Barnyardgrass (barnyardgrass [4]; Postemergence) | Barnyardgrass plant response rating (barnyardgrass [4]) | Plant response rating (scale of 0 to 100 where 0 is no effect and 100 is complete control), Oat, Wild (oat, wild; Postemergence) | Oat, Wild plant response rating (oat, wild) | Plant response rating, Oat, Wild (oat, wild; [11])
15: Plant response rating, Barnyardgrass (barnyardgrass [4]; [11]) | Plant response rating (scale of 0 to 100 where 0 is no effect and 100 is complete control), Velvetleaf (velvetleaf [5]; Postemergence)
55: Plant response rating, Oilseed Rape (oilseed rape; [11])
50: Corn plant response rating (corn [9]; [13]) | Plant response rating (scale of 0 to 100 where 0 is no effect and 100 is complete control), Chickweed (chickweed; Postemergence)
35: Oilseed Rape plant response rating (oilseed rape)
80: Foxtail, Giant plant response rating (foxtail, giant; [13]) | Plant response rating, Velvetleaf (velvetleaf [5]; [10]) | Corn plant response rating (corn [6]; [18]) | Barnyardgrass plant response rating (barnyardgrass [7]; [19]) | Corn plant response rating (corn [9]; [12]) | Chickweed plant response rating (chickweed) | Plant response rating, Chickweed (chickweed; [11])
60: Plant response rating (scale of 0 to 100 where 0 is no effect and 100 is complete control), Pigweed (pigweed; Postemergence) | Pigweed plant response rating (pigweed) | Plant response rating, Barnyardgrass (barnyardgrass [4]; [10]) | Plant response rating, Velvetleaf (velvetleaf [5]; [11]) | Plant response rating, Oilseed Rape (oilseed rape; [10])
70: Morningglory plant response rating (morningglory [3]; [13])
100: Foxtail, Giant plant response rating (foxtail, giant; [12]) | Plant response rating (scale of 0 to 100), Barnyardgrass (barnyardgrass [2]; Preemergence, 250 g ai/ha) | Plant response rating, Barnyardgrass (barnyardgrass [2]; [15]) | Barnyardgrass plant response rating (barnyardgrass [2]; [16]) | Morningglory plant response rating (morningglory [3]; [12]) | Plant response rating (scale of 0 to 100), Galium (galium; Preemergence, 250 g ai/ha) | Plant response rating, Galium (galium; [15]) | Galium plant response rating (galium; [16])
75: Plant response rating (scale of 0 to 100 where 0 is no effect and 100 is complete control), Morningglory (morningglory [1]; Postemergence, 31 g ai/ha, visually evaluated after 13 to 15 days) | Morningglory plant response rating (morningglory [1]) | Plant response rating (scale of 0 to 100 where 0 is no effect and 100 is complete control), Lambsquarters (lambsquarters; Postemergence) | Lambsquarters plant response rating (lambsquarters)

CCONC(=O)c1cc(CC)n(Cc2ccnc(C(F)(F)F)c2)n1 [Compound 77]
30: Corn plant response rating (corn [6]; [18]) | Corn plant response rating (corn [9]; [12])
80: Velvetleaf plant response rating (velvetleaf [8]; [18])
60: Plant response rating, Pigweed (pigweed; [11]) | Plant response rating, Chickweed (chickweed; [11])
0: Plant response rating (scale of 0 to 100), Barnyardgrass (barnyardgrass [4]; Postemergence, 16 g ai/ha) | Plant response rating (scale of 0 to 100 where 0 is no effect and 100 is complete control), Barnyardgrass (barnyardgrass [4]; Postemergence) | Plant response rating, Galium (galium; [21]) | Galium plant response rating (galium; [14])
10: Plant response rating (scale of 0 to 100), Morningglory (morningglory [1]; Postemergence, 16 g ai/ha) | Plant response rating, Barnyardgrass (barnyardgrass [2]; [21]) | Plant response rating (scale of 0 to 100), Velvetleaf (velvetleaf [5]; Postemergence, 16 g ai/ha) | Corn plant response rating (corn [9]; [13]) | Galium plant response rating (galium; [16])
75: Plant response rating, Barnyardgrass (barnyardgrass [2]; [15])
100: Foxtail, Giant plant response rating (foxtail, giant; [12]) | Foxtail, Giant plant response rating (foxtail, giant; [13]) | Barnyardgrass plant response rating (barnyardgrass [2]; [16]) | Barnyardgrass plant response rating (barnyardgrass [7]; [20]) | Velvetleaf plant response rating (velvetleaf [8]; [17])
25: Plant response rating (scale of 0 to 100), Pigweed (pigweed; Postemergence, 16 g ai/ha)
70: Plant response rating, Lambsquarters (lambsquarters; [11])
15: Plant response rating (scale of 0 to 100), Lambsquarters (lambsquarters; Postemergence, 16 g ai/ha) | Plant response rating (scale of 0 to 100 where 0 is no effect and 100 is complete control), Velvetleaf (velvetleaf [5]; Postemergence) | Velvetleaf plant response rating (velvetleaf [5]) | Plant response rating, Oilseed Rape (oilseed rape; [11])
20: Morningglory plant response rating (morningglory [1]) | Barnyardgrass plant response rating (barnyardgrass [2]; [14]) | Morningglory plant response rating (morningglory [3]; [13]) | Plant response rating, Barnyardgrass (barnyardgrass [4]; [11]) | Plant response rating, Velvetleaf (velvetleaf [5]; [11])
55: Pigweed plant response rating (pigweed) | Chickweed plant response rating (chickweed)
5: Barnyardgrass plant response rating (barnyardgrass [4]) | Plant response rating (scale of 0 to 100), Oilseed Rape (oilseed rape; Postemergence, 16 g ai/ha) | Plant response rating (scale of 0 to 100 where 0 is no effect and 100 is complete control), Oilseed Rape (oilseed rape; Postemergence) | Oilseed Rape plant response rating (oilseed rape) | Plant response rating (scale of 0 to 100), Oat, Wild (oat, wild; Postemergence, 16 g ai/ha) | Plant response rating (scale of 0 to 100 where 0 is no effect and 100 is complete control), Oat, Wild (oat, wild; Postemergence) | Oat, Wild plant response rating (oat, wild) | Plant response rating, Oat, Wild (oat, wild; [11]) | Plant response rating, Galium (galium; [15])
35: Plant response rating (scale of 0 to 100 where 0 is no effect and 100 is complete control), Lambsquarters (lambsquarters; Postemergence) | Lambsquarters plant response rating (lambsquarters)
40: Plant response rating, Morningglory (morningglory [1]; [11]) | Corn plant response rating (corn [6]; [17])
50: Plant response rating (scale of 0 to 100 where 0 is no effect and 100 is complete control), Pigweed (pigweed; Postemergence) | Morningglory plant response rating (morningglory [3]; [12]) | Barnyardgrass plant response rating (barnyardgrass [7]; [19]) | Plant response rating (scale of 0 to 100), Chickweed (chickweed; Postemergence, 16 g ai/ha) | Plant response rating (scale of 0 to 100 where 0 is no effect and 100 is complete control), Chickweed (chickweed; Postemergence)
